From publication PMC5784824 (Journal of immunology (Baltimore, Md. : 1950), 2017)

Columns and labels:
[1] = biological target: T1, hP2X4 (Homo sapiens, UniProt Q99571); assay: Fura-2 intracellular Ca2+ measurement in over-expressing […]1 cells; type: cell-based; details: agonist; pH 7.4; 1.5 mM CaCl2 buffer
T1 sequence (Q99571 1-388): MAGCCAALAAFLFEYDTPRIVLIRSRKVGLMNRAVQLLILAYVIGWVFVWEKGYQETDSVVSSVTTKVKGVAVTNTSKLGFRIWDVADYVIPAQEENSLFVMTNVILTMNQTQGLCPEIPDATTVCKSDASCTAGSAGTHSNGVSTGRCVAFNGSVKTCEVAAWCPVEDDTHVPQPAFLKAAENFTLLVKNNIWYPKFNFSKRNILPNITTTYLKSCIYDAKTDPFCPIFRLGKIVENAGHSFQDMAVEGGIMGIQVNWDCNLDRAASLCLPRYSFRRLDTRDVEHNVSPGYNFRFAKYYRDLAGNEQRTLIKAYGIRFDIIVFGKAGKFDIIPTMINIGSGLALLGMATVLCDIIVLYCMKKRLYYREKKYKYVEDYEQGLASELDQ

[2] = biological target: T2, hP2X7 (Homo sapiens, UniProt Q99572); assay: as above; type: cell-based; details: agonist; pH 7.4; 1.5 mM CaCl2 buffer
T2 sequence (Q99572 1-595): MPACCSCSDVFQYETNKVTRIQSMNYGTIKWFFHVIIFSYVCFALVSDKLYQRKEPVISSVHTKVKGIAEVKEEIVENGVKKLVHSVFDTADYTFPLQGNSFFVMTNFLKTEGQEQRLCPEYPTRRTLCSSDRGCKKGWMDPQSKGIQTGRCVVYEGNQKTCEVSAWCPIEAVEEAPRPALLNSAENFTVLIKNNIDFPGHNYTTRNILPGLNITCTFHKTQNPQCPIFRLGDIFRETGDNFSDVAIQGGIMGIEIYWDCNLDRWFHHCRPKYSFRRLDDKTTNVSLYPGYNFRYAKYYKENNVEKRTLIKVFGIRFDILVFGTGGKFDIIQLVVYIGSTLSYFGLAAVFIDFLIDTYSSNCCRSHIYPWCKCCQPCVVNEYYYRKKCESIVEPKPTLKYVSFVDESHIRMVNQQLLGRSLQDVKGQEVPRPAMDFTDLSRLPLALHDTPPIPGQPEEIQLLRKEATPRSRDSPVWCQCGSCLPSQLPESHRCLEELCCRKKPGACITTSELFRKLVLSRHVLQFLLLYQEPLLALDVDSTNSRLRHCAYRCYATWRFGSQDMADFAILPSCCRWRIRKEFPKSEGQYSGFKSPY

In the case of Nc1ncnc2c1ncn2[C@@H]1O[C@H](COP(=O)(O)OP(=O)(O)OP(=O)(O)O)[C@@H](O)[C@H]1O [ATP], the “Ca2+ response (activation) at 100 μM ATP” value [1] is reported as “in over-expressing cells illustrated maximal activation of P2X4 and no activation of P2X7” and the “Ca2+ response (no activation) at 100 μM ATP” value [2] is reported as “in over-expressing cells illustrated maximal activation of P2X4 and no activation of P2X7”.
